Here are results for 24 compounds from patent publication US12098144B2, “Piperazine indazole glucocorticoid receptor antagonists” (Corcept Therapeutics Incorporated, priority 2021, dated 2024).

Each structure is given as a SMILES string.

This experiment deals with T1, glucocorticoid receptor (Homo sapiens, UniProt P04150).
T1 construct: endogenous in cells; ATCC cat
T1 sequence (P04150 1-777): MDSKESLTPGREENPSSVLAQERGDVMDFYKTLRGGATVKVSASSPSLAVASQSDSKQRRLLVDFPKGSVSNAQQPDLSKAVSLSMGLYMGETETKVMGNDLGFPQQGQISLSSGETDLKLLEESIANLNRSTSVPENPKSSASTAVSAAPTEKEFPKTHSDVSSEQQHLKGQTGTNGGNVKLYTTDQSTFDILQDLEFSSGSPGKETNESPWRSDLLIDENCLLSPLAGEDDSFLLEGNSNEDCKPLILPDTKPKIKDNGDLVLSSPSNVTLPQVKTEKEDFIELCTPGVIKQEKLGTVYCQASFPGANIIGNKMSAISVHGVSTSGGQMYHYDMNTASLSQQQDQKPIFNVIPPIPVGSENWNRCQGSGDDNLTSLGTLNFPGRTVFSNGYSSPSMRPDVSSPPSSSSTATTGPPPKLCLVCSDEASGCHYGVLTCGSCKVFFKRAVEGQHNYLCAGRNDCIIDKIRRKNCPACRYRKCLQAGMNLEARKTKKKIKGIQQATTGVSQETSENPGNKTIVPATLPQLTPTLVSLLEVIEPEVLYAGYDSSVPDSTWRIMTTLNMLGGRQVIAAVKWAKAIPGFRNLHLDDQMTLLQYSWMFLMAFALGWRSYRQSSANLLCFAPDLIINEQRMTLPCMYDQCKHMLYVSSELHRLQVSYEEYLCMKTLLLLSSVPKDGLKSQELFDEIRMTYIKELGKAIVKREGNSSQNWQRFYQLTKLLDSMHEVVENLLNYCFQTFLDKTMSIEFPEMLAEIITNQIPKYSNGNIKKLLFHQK
Description: Hep G2 TAT IC50: inhibition of dexamethasone-induced TAT in HepG2 cells (384 well). Type of experiment: cell-based. The protocol: Glucocorticoid mediated activation of TAT occurs by transactivation of glucocorticoid response elements in the TAT promoter by glucocorticoid receptor/agonist complex.
HepG2 cells were cultured using MEME media supplemented with 10% (v/v) foetal bovine serum, 2 mM L-glutamine, 1% (v/v) NEAA, and 1% (v/v) penstrep, at 37° C., 5%/95% (v/v) CO2/air.
Compounds were diluted from a 10 mM stock via an Echo Acoustic liquid handler into 10 μL assay media to generate a 10-point half-log dilution curve.
HepG2 cells were then lysed with 8 μL of cell lysis buffer containing a protease inhibitor cocktail for 15 minutes at 25° C. […] After a 2-hour incubation at 37° C. the reaction was terminated by the addition of 8 μL of 5 M aqueous potassium hydroxide solution, and the plates incubated for a further 30 minutes at 37° C.
[compound] and fitting the data to a 4-parameter logistic equation.
Consider `Cc1cc2c(cnn2-c2ccc(F)cc2)cc1C1CN(S(=O)(=O)N2CCOCC2)CCN1CC1CCCC1` (single isomer, unassigned) [Example 180, 4-(4-(cyclopentylmethyl)-3-(1-(4-fluorophenyl)-6-methyl-indazol-5-yl)piperazin-1-yl)sulfonylmorpholine], for which the IC50 was determined as 2090 nM.

In the case of `Cc1cc2c(cnn2-c2ccc(F)cc2)cc1C1CN(S(=O)(=O)N(C)C)CCN1CCC(F)(F)F` (single isomer, unassigned) [Example 181, 3-(1-(4-fluorophenyl)-6-methyl-indazol-5-yl)-N,N-dimethyl-4-(3,3,3-trifluoropropyl)piperazine-1-sulfonamide], it took 1660 nM to reach half-maximal inhibition (IC50). For `Cc1cc2c(cnn2-c2ccc(F)cc2)cc1C1CN(S(=O)(=O)N(C)C)CCN1CC1CCC1` (single isomer, unassigned) [Example 182, 4-(cyclobutylmethyl)-3-(1-(4-fluorophenyl)-6-methyl-indazol-5-yl)-N,N-dimethyl-piperazine-1-sulfonamide], the IC50 is 3590 nM. This IC50 lies about 2.2-fold higher than the previous one. The compound `Cc1cc2c(cnn2-c2ccc(F)cc2)cc1C1CN(S(=O)(=O)N(C)C)CCN1CC1CC(F)(F)C1` (single isomer, unassigned) [Example 183, 4-((3,3-difluorocyclobutyl)methyl)-3-(1-(4-fluorophenyl)-6-methyl-indazol-5-yl)-N,N-dimethyl-piperazine-1-sulfonamide] yielded an IC50 of 2660 nM. Regarding `Cc1nc(S(=O)(=O)N2CCN(CC3CCC3)C(c3cc4cnn(-c5ccc(F)cc5)c4cc3C)C2)cs1` (single isomer, unassigned) [Example 184, 4-(4-(cyclobutylmethyl)-3-(1-(4-fluorophenyl)-6-methyl-indazol-5-yl)piperazin-1-yl)sulfonyl-2-methyl-thiazole], the midpoint of inhibition, the IC50, lay at 1160 nM. In turn, `Cc1nc(S(=O)(=O)N2CCN(CC3CC(C)(C)C3)C(c3cc4cnn(-c5ccc(F)cc5)c4cc3C)C2)cs1` (single isomer, unassigned) [Example 185, 4-(4-((3,3-dimethylcyclobutyl)methyl)-3-(1-(4-fluorophenyl)-6-methyl-indazol-5-yl)piperazin-1-yl)sulfonyl-2-methyl-thiazole] came in with a 50% inhibitory concentration (IC50) of 1220 nM. Take `Cc1nc(S(=O)(=O)N2CCN(CC3CCCC3)C(c3cc4cnn(-c5ccc(F)cc5)c4cc3C)C2)cs1` (single isomer, unassigned) [Example 186, 4-(4-(cyclopentylmethyl)-3-(1-(4-fluorophenyl)-6-methyl-indazol-5-yl)piperazin-1-yl)sulfonyl-2-methyl-thiazole]: the IC50 came out at 2400 nM. `Cc1ncc(S(=O)(=O)N2CCN(CC3CCCC3)C(c3cc4cnn(-c5ccc(F)cc5)c4cc3C)C2)s1` (single isomer, unassigned) [Example 187, 5-(4-(cyclopentylmethyl)-3-(1-(4-fluorophenyl)-6-methyl-indazol-5-yl)piperazin-1-yl)sulfonyl-2-methyl-thiazole] came in with an IC50 of 1660 nM. Take `Cc1cc2c(cnn2-c2ccc(F)cc2)cc1C1CN(S(=O)(=O)c2cccnn2)CCN1CC(C)C` (single isomer, unassigned) [Example 190, 1-(4-fluorophenyl)-5-(1-isobutyl-4-pyridazin-3-ylsulfonyl-piperazin-2-yl)-6-methyl-indazole]: the IC50 came out at 1070 nM. Regarding `Cc1cc2c(cnn2-c2ccc(F)cc2)cc1C1CN(S(=O)(=O)N2CCOCC2)CCN1Cc1ccccc1` (single isomer, unassigned) [Example 214, 4-(4-benzyl-3-(1-(4-fluorophenyl)-6-methyl-indazol-5-yl)piperazin-1-yl)sulfonylmorpholine], the IC50 is 2750 nM. Compared with the last compound, the IC50 is about 2.6-fold higher. `Cc1cc2c(cnn2-c2ccc(F)cc2)cc1C1CN(S(=O)(=O)N2CCOCC2)CCN1CCc1ccccc1` (single isomer, unassigned) [Example 215, 4-(3-(1-(4-fluorophenyl)-6-methyl-indazol-5-yl)-4-(2-phenylethyl)piperazin-1-yl)sulfonylmorpholine] returned an IC50 of 3980 nM. In the case of `Cc1cc2c(cnn2-c2ccc(F)cc2)cc1C1CN(S(=O)(=O)c2cnn(C)n2)CCCN1CCC(F)(F)F` (stereo not drawn) [Example 173, 1-(4-fluorophenyl)-6-methyl-5-(4-(2-methyltriazol-4-yl)sulfonyl-1-(3,3,3-trifluoropropyl)-1,4-diazepan-2-yl)indazole] it was 2750 nM; in that of `CCn1cc(S(=O)(=O)N2CCN(CCC(F)(F)F)C(c3cc4cnn(-c5cc(C)c(=O)n(C)c5)c4cc3C)C2)cn1` (stereo not drawn) [Example 174, 5-(5-(4-(1-ethylpyrazol-4-yl)sulfonyl-1-(3,3,3-trifluoropropyl)piperazin-2-yl)-6-methyl-indazol-1-yl)-1,3-dimethyl-pyridin-2-one], 191 nM; in that of `Cc1cc2c(cnn2-c2cc(C)c(=O)n(C)n2)cc1C1CN(S(=O)(=O)c2cnn(C)n2)CCN1CCC(F)(F)F` (stereo not drawn) [Example 175, 2,4-dimethyl-6-(6-methyl-5-(4-(2-methyltriazol-4-yl)sulfonyl-1-(3,3,3-trifluoropropyl)piperazin-2-yl)indazol-1-yl)pyridazin-3-one], 1240 nM. The compound `COc1cc2c(cnn2-c2ccc(F)cc2)cc1C1CN(S(=O)(=O)c2csc(C)n2)CCN1CCC(F)(F)F` (stereo not drawn) [Example 188, 4-(3-(1-(4-fluorophenyl)-6-methoxy-indazol-5-yl)-4-(3,3,3-trifluoropropyl)piperazin-1-yl)sulfonyl-2-methyl-thiazole] gave an IC50 of 1320 nM. For `COc1cc2c(cnn2-c2ccc(F)cc2)cc1C1CN(S(=O)(=O)c2csc(C)n2)CCN1CC1CCCC1` (stereo not drawn) [Example 189, 4-(4-(cyclopentylmethyl)-3-(1-(4-fluorophenyl)-6-methoxy-indazol-5-yl)piperazin-1-yl)sulfonyl-2-methyl-thiazole], half-maximal inhibition (IC50) was put at 1660 nM. This IC50 and that of the compound before are within 1.5-fold of each other. Turning to `Cc1ncc(S(=O)(=O)N2CCCN(CCC(F)(F)F)C(c3cc4cnn(-c5ccc(F)cc5)c4cc3C)C2)s1` (stereo not drawn) [Example 191, 5-((3-(1-(4-fluorophenyl)-6-methyl-indazol-5-yl)-4-(3,3,3-trifluoropropyl)-1,4-diazepan-1-yl)sulfonyl)-2-methyl-thiazole], inhibition was half-maximal at 4030 nM (IC50).

The compound `COc1cc2c(cnn2-c2ccc(F)cc2)cc1C1CN(S(=O)(=O)N2CCOCC2)CCN1CCC(F)(F)F` (stereo not drawn) [Example 192, 4-(3-(1-(4-fluorophenyl)-6-methoxy-indazol-5-yl)-4-(3,3,3-trifluoropropyl)piperazin-1-yl)sulfonylmorpholine] displayed an IC50 of 3160 nM. The IC50 values of the last two compounds are within 1.5-fold of each other. For `COc1cc2c(cnn2-c2ccc(F)cc2)cc1C1CN(S(=O)(=O)N2CCOCC2)CCN1CC1CC(F)(F)C1` (stereo not drawn) [Example 193, 4-(4-((3,3-difluorocyclobutyl)methyl)-3-(1-(4-fluorophenyl)-6-methoxy-indazol-5-yl)piperazin-1-yl)sulfonylmorpholine] the value was 2790 nM. Compound `Cc1cc2c(cnn2-c2cc(C)c(=O)n(C)c2)cc1C1CN(S(=O)(=O)c2cccnc2)CCN1CCC(F)(F)F` (stereo not drawn) [Example 194, 1,3-dimethyl-5-(6-methyl-5-(4-(3-pyridylsulfonyl)-1-(3,3,3-trifluoropropyl)piperazin-2-yl)indazol-1-yl)pyridin-2-one] yielded an IC50 of 443 nM. In the case of `Cc1cc2c(cnn2-c2cc(C)c(=O)n(C)c2)cc1C1CN(S(=O)(=O)c2ccccn2)CCN1CCC(F)(F)F` (stereo not drawn) [Example 195, 1,3-dimethyl-5-(6-methyl-5-(4-(2-pyridylsulfonyl)-1-(3,3,3-trifluoropropyl)piperazin-2-yl)indazol-1-yl)pyridin-2-one], the midpoint of inhibition, the IC50, lay at 253 nM. This IC50 is about 1.8-fold lower than that of the compound before.

Turning to `Cc1cc2c(cnn2-c2cc(C)c(=O)n(C)c2)cc1C1CN(S(=O)(=O)N(C)C)CCN1CCC(F)(F)F` (stereo not drawn) [Example 196, 3-(1-(1,5-dimethyl-6-oxo-3-pyridyl)-6-methyl-indazol-5-yl)-N,N-dimethyl-4-(3,3,3-trifluoropropyl)piperazine-1-sulfonamide], the IC50 came to 284 nM. The IC50 values of the last two compounds are within 1.5-fold of each other. As for `Cc1cc2c(cnn2-c2ccc(=O)n(C)c2)cc1C1CN(S(=O)(=O)c2cccnc2)CCN1CCC(F)(F)F` (stereo not drawn) [Example 197, 1-methyl-5-(6-methyl-5-(4-(3-pyridylsulfonyl)-1-(3,3,3-trifluoropropyl)piperazin-2-yl)indazol-1-yl)pyridin-2-one], inhibition was half-maximal at 1000 nM (IC50). The compound `Cc1cc2c(cnn2-c2ccc(=O)n(C)c2)cc1C1CN(S(=O)(=O)N2CCOCC2)CCN1CCC(F)(F)F` (stereo not drawn) [Example 198, 1-methyl-5-(6-methyl-5-(4-morpholinosulfonyl-1-(3,3,3-trifluoropropyl)piperazin-2-yl)indazol-1-yl)pyridin-2-one] came in with an IC50 of 1280 nM.

One may read the IC50 as the concentration that inhibits the measured activity by half.
